Data reported in the supplement of paper PMC13380429.

Experiments:
Details in all cases: 72 h
HepG2 [1] = assay: cell viability relative to DMSO; higher = less toxic
U2OS [2] = assay: as above
Caco-2 [3] = assay: as above
Vero E6 [4] = assay: as above
HepG2 [5] = assay: drug sensitivity score (DSS) for viability; higher = more toxic; extreme values may be limits of the assay
U2OS [6] = assay: as above
Caco-2 [7] = assay: as above
Vero E6 [8] = assay: as above
HepG2 [9] = assay: relative viability EC50 (midpoint between 100% and the lowest measured viability); higher = less toxic
U2OS [10] = assay: as above
Caco-2 [11] = assay: as above
Vero E6 [12] = assay: as above
Calu-3 [13] = assay: drug sensitivity score (DSS) for viability; higher = more toxic; extreme values may be limits of the assay
Calu-3 [14] = assay: cell viability relative to DMSO; higher = less toxic

| Structure (SMILES) | cell viability (HepG2 [1]; 1 nM) [%] | cell viability (HepG2 [1]; 10 nM) [%] | cell viability (HepG2 [1]; 100 nM) [%] | cell viability (HepG2 [1]; 1000 nM) [%] | cell viability (HepG2 [1]; 10000 nM) [%] | cell viability (U2OS [2]; 1 nM) [%] | cell viability (U2OS [2]; 10 nM) [%] | cell viability (U2OS [2]; 100 nM) [%] | cell viability (U2OS [2]; 1000 nM) [%] | cell viability (U2OS [2]; 10000 nM) [%] | cell viability (Caco-2 [3]; 1 nM) [%] | cell viability (Caco-2 [3]; 10 nM) [%] | cell viability (Caco-2 [3]; 100 nM) [%] | cell viability (Caco-2 [3]; 1000 nM) [%] | cell viability (Caco-2 [3]; 10000 nM) [%] | cell viability (Vero E6 [4]; 1 nM) [%] | cell viability (Vero E6 [4]; 10 nM) [%] | cell viability (Vero E6 [4]; 100 nM) [%] | cell viability (Vero E6 [4]; 1000 nM) [%] | cell viability (Vero E6 [4]; 10000 nM) [%] | drug sensitivity score (HepG2 [5]) | drug sensitivity score (U2OS [6]) | drug sensitivity score (Caco-2 [7]) | drug sensitivity score (Vero E6 [8]) | relative viability EC50 (HepG2 [9]) [µM] | relative viability EC50 (U2OS [10]) [µM] | relative viability EC50 (Caco-2 [11]) [µM] | relative viability EC50 (Vero E6 [12]) [µM] | drug sensitivity score (Calu-3 [13]) | cell viability (Calu-3 [14]; 1 nM) [%] | cell viability (Calu-3 [14]; 10 nM) [%] | cell viability (Calu-3 [14]; 100 nM) [%] | cell viability (Calu-3 [14]; 1000 nM) [%] | cell viability (Calu-3 [14]; 10000 nM) [%] |
| --- | --- | --- | --- | --- | --- | --- | --- | --- | --- | --- | --- | --- | --- | --- | --- | --- | --- | --- | --- | --- | --- | --- | --- | --- | --- | --- | --- | --- | --- | --- | --- | --- | --- | --- |
| Cc1nc2ccccc2n1Cc1ccc(Cl)cc1 [chlormidazole] | 92.3 | 95.4 | 109 | 92.1 | 25.1 | 99.2 | 95.9 | 98.8 | 96.9 | 95.8 | 103 | 101 | 109 | 83.1 | 77.8 | 96.7 | 107 | 104 | 107 | 85.9 | 5.4 | 0 | 2.4 | 0.1 | 2.3 | > 10 | > 10 | > 10 |  |  |  |  |  |  |
| O=[N+]([O-])c1cnc(Sc2nnc(O)n2-c2ccc3c(c2)OCCO3)s1 [BI-78D3] | 103 | 102 | 95.8 | 70.3 | 1.4 | 98.9 | 98 | 94.5 | 97.9 | 0.1 | 99.2 | 102 | 94 | 88.3 | 7 | 101 | 95.6 | 99.3 | 94.7 | 0.4 | 9.8 | 5.8 | 7.1 | 6.3 | 1.4 | 3.02 | 2.14 | 2.75 |  |  |  |  |  |  |
| CN(C)c1ccc2nc3ccc(=[N+](C)C)cc-3sc2c1 [methylene-blue] |  |  |  |  |  |  |  |  |  |  |  |  |  |  |  |  |  |  |  |  | 9.2 | 3 |  | 5.1 |  |  |  |  | 6.1 |  |  |  |  |  |
| Cc1cccn2c(=O)c(-c3nnn[nH]3)cnc12 [pemirolast] | 102 | 98.2 | 101 | 96.2 | 92.7 | 98.4 | 95.1 | 95.4 | 91.5 | 95.6 | 95.1 | 98.6 | 92.6 | 96.1 | 97.6 | 89.7 | 88.7 | 88.5 | 96.4 | 93.8 | 0 | 0 | 0 | 0 | > 10 | > 10 | > 10 | > 10 |  |  |  |  |  |  |
| C=C1/C(=C\C=C2/CCC[C@]3(C)[C@@H]([C@H](C)CC[C@@H](O)C(C)C)CC[C@@H]23)C[C@@H](O)C[C@@H]1O [tacalcitol] |  |  |  |  |  |  |  |  |  |  |  |  |  |  |  |  |  |  |  |  | 0 | 0.3 |  | 1.9 |  |  |  |  | 0 |  |  |  |  |  |
| Oc1cccc(Nc2ncc(F)c(Nc3cccc(O)c3)n2)c1 [R112] | 106 | 102 | 107 | 96.1 | 30.9 | 97.6 | 101 | 95.6 | 98.5 | 30.2 | 103 | 107 | 99.1 | 94.7 | 62.1 | 103 | 102 | 99.9 | 99 | 46.6 | 4.4 | 4 | 2.7 | 3 | 2.72 | 3.01 |  | 3.03 | 1.4 | 92.2 | 100 | 92.6 | 92.6 | 74.8 |
| COc1cccc(-c2ccc(NC(=O)C3=C(C(=O)O)CCC3)c(F)c2)c1 | 103 | 89.4 | 98.8 | 97.5 | 92.6 | 99 | 105 | 96.8 | 104 | 96.2 | 96.4 | 93.1 | 103 | 98.6 | 78.8 | 90.1 | 92.2 | 98 | 95.8 | 90.8 | 0 | 0 | 0.9 | 0 | > 10 | > 10 | > 10 | > 10 |  |  |  |  |  |  |
| CCOC(=O)[C@H](Cc1ccccc1)NC(=O)c1cc(Cl)c(OCCN2CCN(C)CC2)c(Cl)c1O [JTE-607] | 107 | 109 | 98.6 | 56.8 | 41.9 | 99.9 | 98.8 | 95.7 | 102 | 80 | 90.9 | 95.5 | 99.8 | 103 | 76.1 | 103 | 99.1 | 104 | 101 | 103 | 8.4 | 0.5 | 0.7 | 0 | 0.606 | > 10 | > 10 | > 10 |  |  |  |  |  |  |
| Nc1cc2c3ccccc3ccc2c2ccccc12 [6-aminochrysene] |  |  |  |  |  |  |  |  |  |  |  |  |  |  |  |  |  |  |  |  | 3 | 4.4 |  | 0.2 |  |  |  |  | 0 |  |  |  |  |  |
| N#Cc1ccc(COC[C@H]2O[C@@H](n3c(NCc4ccc(Cl)c(Cl)c4)nc4c(N)ncnc43)[C@H](O)[C@@H]2O)cc1 | 94.2 | 93.4 | 101 | 82.5 | 20.4 | 95.6 | 97.9 | 93.7 | 97.4 | 64.9 | 94.5 | 98.9 | 91.8 | 101 | 52.8 | 101 | 97.8 | 106 | 99.9 | 99.4 | 7.2 | 2 | 2.3 | 0 | 1.66 |  |  | > 10 | 4.5 | 96.9 | 93.3 | 99.6 | 86.2 | 52.8 |
| Nc1nc(Cl)nc2c1ncn2[C@@H]1O[C@H](CO)[C@@H](O)[C@@H]1F [clofarabine] | 94.1 | 100 | 89.2 | 33.3 | 39.3 | 99.9 | 101 | 105 | 79.7 | 65.5 | 90.2 | 102 | 88.8 | 85.9 | 71.5 | 96.2 | 91.5 | 96.6 | 87.8 | 55.9 | 14.1 | 4 | 2.8 | 4 | 0.192 |  |  |  | 6.8 | 91.4 | 106 | 96.2 | 64.8 | 54.6 |
| CC1(C)S[C@@H]2[C@H](NC(=O)[C@H](N)c3ccccc3)C(=O)N2[C@H]1C(=O)O [ampicillin] |  |  |  |  |  |  |  |  |  |  |  |  |  |  |  |  |  |  |  |  | 0 | 0 |  | 0 |  |  |  |  | 0 |  |  |  |  |  |
| Cc1cccc(-c2[nH]c(C(C)(C)C)nc2-c2ccc3c(c2)OCO3)n1 | 94.6 | 102 | 101 | 75.2 | 4.5 | 98.8 | 98.6 | 90.6 | 95.4 | 69.2 | 95.4 | 94.3 | 98.3 | 77.1 | 15 | 104 | 101 | 107 | 96.2 | 81.7 | 9.1 | 2.1 | 8.2 | 0.9 | 1.52 |  | 1.49 | > 10 | 1.1 | 102 | 95.2 | 107 | 103 | 70.3 |
| C/C=C(/C)C(=O)O[C@H]1[C@H](OC(C)=O)[C@@]2(CO)C(CC1(C)C)C1=CCC3[C@@]4(C)CCC(O[C@@H]5O[C@H](C(=O)O)[C@@H](O[C@@H]6O[C@H](CO)[C@@H](O)[C@H](O)[C@H]6O)[C@H](O)[C@H]5O[C@@H]5O[C@H](CO)[C@@H](O)[C@H](O)[C@H]5O)[C@](C)(CO)C4CC[C@@]3(C)[C@]1(C)C[C@H]2O.C/C=C(\C)C(=O)O[C@H]1[C@H](OC(C)=O)[C@@]2(CO)C(CC1(C)C)C1=CCC3[C@@]4(C)CCC(O[C@@H]5O[C@H](C(=O)O)[C@@H](O[C@@H]6O[C@H](CO)[C@@H](O)[C@H](O)[C@H]6O)[C@H](O)[C@H]5O[C@@H]5O[C@H](CO)[C@@H](O)[C@H](O)[C@H]5O)[C@](C)(CO)C4CC[C@@]3(C)[C@]1(C)C[C@H]2O (some centres undefined) [escin] |  |  |  |  |  |  |  |  |  |  |  |  |  |  |  |  |  |  |  |  | 3.8 | 1.5 |  | 4.1 |  |  |  |  | 0 |  |  |  |  |  |
